Laboratory results taken from patent publication US12502362B2, “Inhibitors of nucleotidyltransferase superfamily enzymes as antibiotics” (priority 2017, dated 2025).
Like-named read-outs stand apart in the source and are kept apart here.

Tests used:
E. coli (ATCC 35218) = assay: microbe, parasite or virus in culture; type: cell-based
Staphylococcus hominis = type: cell-based
Method: (§1) It was also tested whether compounds #63 and #285 can inhibit other coagulase-negative Staphylococcus (CNS) including S. epidermidis, S. hominis, etc. […].

[1] = tested on: Staphylococcus epidermidis; type: cell-based
Method: as §1

[2] = tested on: Staphylococcus saprophyticus (ATCC BAA-750); assay: MIC80 on S. saprophyticus; type: cell-based; settings: S. saprophyticus ATCC BAA-750, read-out: MIC80 S. sapro
[3] = tested on: S. aureus ATCC strains and MRSA; type: cell-based, Staphylococcus aureus
S. aureus (ATCC 29213) = assay: MIC80 on S. aureus; type: cell-based, Staphylococcus aureus; settings: ≥80% growth inhibition
[4] = tested on: Ps. aeruginosa (ATCC 27853); assay: MIC80 on Ps. aeruginosa; type: cell-based; settings: Pseudomonas aeruginosa, ATCC27853

O=C(O)c1cn(C2CC2)c2cc(N3CCNCC3)c(F)cc2c1=O [Compound 67, Ciprofloxacin]
R and S: Antibiotic susceptibility (Staphylococcus hominis) | Antibiotic susceptibility [1]
R: Antibiotic susceptibility ([3]; S. aureus ATCC BAA 1026) | Antibiotic susceptibility ([3]; Sa1 (MRSA)) | Antibiotic susceptibility ([3]; Sa2 (MRSA)) | Antibiotic susceptibility ([3]; Sa3 (MRSA)) | Antibiotic susceptibility ([3]; Sa5 (MRSA)) | Antibiotic susceptibility ([3]; Sa6 (MRSA)) | Antibiotic susceptibility ([3]; Sa8 (MRSA)) | Antibiotic susceptibility ([3]; Sa9 (MRSA)) | Antibiotic susceptibility ([3]; Sa10 (MRSA)) | Antibiotic susceptibility ([3]; Sa11 (MRSA)) | Antibiotic susceptibility ([3]; Sa12 (MRSA)) | Antibiotic susceptibility ([3]; Sa14 (MRSA)) | Antibiotic susceptibility ([3]; Sa15 (MRSA)) | Antibiotic susceptibility ([3]; Sa16 (MRSA)) | Antibiotic susceptibility ([3]; Sa17 (MRSA)) | Antibiotic susceptibility ([3]; Sa18 (MRSA)) | Antibiotic susceptibility ([3]; Sa20 (MRSA))
S: Antibiotic susceptibility ([3]; S. aureus ATCC 25923) | Antibiotic susceptibility ([3]; S. aureus ATCC 29213) | Antibiotic susceptibility ([3]; S. aureus ATCC BAA 976) | Antibiotic susceptibility ([3]; S. aureus ATCC BAA 977) | Antibiotic susceptibility ([3]; Sa7 (MRSA)) | Antibiotic susceptibility ([3]; Sa19 (MRSA)) | Antibiotic susceptibility ([3]; Sa21 (MRSA)) | Antibiotic susceptibility ([3]; Sa22 (MRSA)) | Antibiotic susceptibility ([3]; Sa23 (MRSA))
< 2.9 µM: MIC80 (E. coli (ATCC 35218); Escherichia coli, ATCC35218, read-out: MIC80 E. coli, E. coli ATCC 35218) | MIC80 ([2]; Staphylococcus saprophyticus, ATCCBAA750) | MIC80 (S. aureus (ATCC 29213); Staphylococcus aureus, ATCC 29213 / MSSA, read-out: MIC80 S. aureus, S. aureus ATCC 29213 (MSSA)) | MIC80 [4]
<2.9 µM: MIC80 E. coli (E. coli (ATCC 35218); E. coli ATCC 35218) | MIC80 [2]
<2.6 µM: MIC80 S. aureus (S. aureus (ATCC 29213); S. aureus ATCC 29213 (MSSA))
